Source: patent publication US20170137818A1, “APTAMER INHIBITING BIOLOGICAL ACTIVITY OF AUTOTAXIN BY BINDING WITH AUTOTAXIN, AND USE THEREOF” (RIBOMIC INC., priority 2014, published 2017)

What was measured:
autotaxin [1] = molecular target: T1, autotaxin (Homo sapiens, UniProt Q13822); experiment: NPP2 inhibitory assay (pNP-TMP substrate); format: biochemical; conditions: mean of 2-3 measurements ± standard deviation
T1 construct: His; purchased R&D
Excerpt: Whether an aptamer inhibits the enzyme activity of autotaxin can be evaluated, for example, by the following test. As a substrate of autotaxin, phosphodiester bond-containing synthetic substrate p-nitrophenyl thymidine 5′-monophosphate (pNP-TMP) (SIGMA) is used. A phosphodiester bond is cleaved by hydrolysis, and p-nitrophenol is liberated. The p-nitrophenol develops a yellow color, and the color is detected. For the assay, a 96-well plate (96-Well EIAsurasshuRIA Polystyrene Plates, Costar) was used, and the amount of the reaction mixture was 200 μL. Nucleic acid was prepared in solution A (see below-mentioned Example 1) (100 μL), pNP-TMP (20 μL) adjusted to 10 mM in the reaction mixture A was added, and the mixture was stirred well and heated at 37° C. for 5 min. On the other hand, 6 ng of autotaxin (Recombinant Human, manufactured by R&D) diluted with solution A was prepared (80 μL), and heated at 37° C. for 5 min. After heating, they were mixed to start an enzyme reaction. The final autotaxin concentration in the reaction solution was 0.3 nM, and the final substrate concentration was 1 mM. A plate containing the reaction mixture was heated at 37° C. for 24 hr, placed in a microplate reader SpectraMax190 (manufactured by Molecular Devices) and the absorbance was determined at wavelength 405 nm. The absorbance when nucleic acid is not added as 100% (A0), an enzyme activity rate was determined from the absorbance (A) of each test substance and according to the following formula.
Enzyme activity rate=(A/A0)×100
(§1) The concentration (IC50) of an inhibitor necessary for inhibiting the enzyme activity by 50% was determined.
Whether these nucleic acids show an autotaxin inhibitory activity was evaluated by the following method. As a substrate of autotaxin, phosphodiester bond-containing synthetic substrate p-nitrophenyl thymidine 5′-monophosphate (pNP-TMP) (SIGMA) was selected (hereinafter to be referred to as NPP2 inhibitory assay). A phosphodiester bond is cleaved by hydrolysis, and p-nitrophenol is liberated. The p-nitrophenol develops a yellow color, and the color is detected. For the assay, a 96-well plate (96-Well EIA/RIA Polystyrene Plates, Costar) was used, and the amount of the reaction mixture was 200 μL. As the reaction mixture, solution A was used. Nucleic acids were prepared in solution A (100 μL), pNP-TMP (20 μL) adjusted to 10 mM in the reaction mixture A was added, and the mixture was stirred well and heated at 37° C. for 5 min. On the other hand, 6 ng of autotaxin diluted with solution A was prepared (80 μL), and heated at 37° C. for 5 min. After heating, they were mixed to start enzyme reaction. The final autotaxin concentration in the reaction solution was 0.3 nM, and the final substrate concentration was 1 mM. A plate containing the reaction mixture was heated at 37° C. for 24 hr, placed in a microplate reader SpectraMax190 (manufactured by Molecular Devices) and the absorbance was determined at wavelength 405 nm. The absorbance when nucleic acids are not added as 100% (A0), an […] was determined from the absorbance (A) of each test substance and according to the following formula.
as §1

autotaxin [2] = molecular target: T1, autotaxin; experiment: Biacore surface plasmon resonance, autotaxin immobilized on CM4 chip, nucleic acid as analyte; format: binding; conditions: autotaxin immobilized about 2700 RU, nucleic acid 0.3 μM as analyte; maximum RU relative to SEQ ID NO: 12
Experimental: In another measurement method, an autotaxin is first immobilized on a sensorchip. The immobilization amount is set to about 2700 RU. An aptamer solution as an analyte prepared to 0.30 μM is injected by 20 μL, and binding of the aptamer to the autotaxin is detected.
All nucleic acids of SEQ ID NOs: 11-16 were produced by chemical synthesis. Whether these nucleic acids bind to autotaxin was evaluated by the surface plasmon resonance method. For the measurement, Biacore T100 manufactured by GE Healthcare was used, and the measurement was performed by the method shown below. About 2700 RU autotaxin was immobilized on a sensorchip surface of CM4 chip by using an amino coupling kit. The flow rate was 20 μL/min, and nucleic acids (20 μL) prepared to 0.3 μM were injected as an analyte. As a running buffer, solution A was used.

autotaxin [3] = molecular target: T1, autotaxin; experiment: Biacore surface plasmon resonance, nucleic acid immobilized on SA chip, autotaxin as analyte; format: binding; conditions: Example 1, running text
Experimental: Biacore T100 manufactured by GE Healthcare is used for the measurement of binding strength. In one measurement method, an aptamer is first immobilized on a sensorchip. The immobilization amount is set to about 1500 RU. An autotaxin solution as an analyte prepared to 0.020 μM is injected by 20 μL, and binding of the autotaxin to the aptamer is detected.
All nucleic acids shown in SEQ ID NOs: 4-10 were produced by chemical synthesis. The binding activity of these nucleic acids to autotaxin was evaluated by the surface plasmon resonance method. For the measurement, Biacore T100 manufactured by GE Healthcare was used. The SA chips with streptavidin immobilized thereon were used as the sensor chips. Binding thereto was about 1500 RU of 16 nucleotide Poly dT of which biotin was bound to the 5′-terminus. The nucleic acids used as a ligand were added with Poly A (16 nucleotides) to the 3′-terminus, and were immobilized on SA chips by T-A annealing. The nucleic acids (20 μL) were injected at a flow rate of 20 μL/min to immobilize about 1500 RU of the nucleic acids. An autotaxin for analyte was prepared at 0.02 μM, and 20 μL thereof was injected. As a running buffer, solution A (mixed solution of 145 mM sodium chloride, 5.4 mM potassium chloride, 1.8 mM calcium chloride, 0.8 mM magnesium chloride, 20 mM Tris (pH 7.6), 0.05% Tween20) was used.

autotaxin [4] = molecular target: T1, autotaxin; experiment: LysoPLD inhibitory assay (14:0 LPC substrate, choline detection); format: biochemical
Excerpt: As a substrate of autotaxin, 14:0 lysophosphatidylcholine (LPC, Avanti) was selected (hereinafter to be referred to as LysoPLD inhibitory assay). LPC is hydrolyzed by the lysophospholipase D activity of autotaxin and decomposed into lysophosphatidic acid (LPA) and choline. Choline is oxidized by choline oxidase to afford hydrogen peroxide. In the presence of the hydrogen peroxide and peroxidase, N-ethyl-N-(2-hydroxy-3-sulfopropyl)-3-methoxyaniline (TOOS) and 4-aminoantipyrine (4-AA) undergo oxidation condensation reaction, which develops a purple color to be detected.
For the reaction, a 96-well plate (polypropylene 96-well, manufactured by BMbio) was used, and the amount of the reaction mixture was 60 μL. As a reaction solution, solution A was used. […] The lysophospholipase D activity of autotaxin was evaluated as follows. […] The absorbance was measured at a wavelength of 548 nm, and used as a blank value. Then, solution C (50 μL) was added, and changes in the absorbance at wavelength 548 nm were measured over time. Solution C contained 100 mM tris (pH 8.0), 10 U/mL choline oxidase (manufactured by TOYOBO), 1 mM 4-AA (manufactured by DOJINDO), and 0.01% Triton-X. The absorbance of solution blank at the time point when solution B was added, which had been measured earlier, was subtracted from the absorbance at 15 min after addition of solution C, whereby true absorbance value was obtained. […]

[5] = Table 4, >1.0 = no inhibitory activity up to 1.0 μM

Row | Compound | IC50 (autotaxin [1]; Table 2) | Binding activity by Biacore (autotaxin [2]) | IC50 (autotaxin [1]; [5]) | further results
1 | 15 (CCTGGACGGAACCAATACTTGGTCTCCAGG; DNA, backbone and methylation of C not given here) [compound 15] | 990 ± 11 nM | − (not more than 10% of the aptamer shown in SEQ ID NO: 12 that showed the highest binding amount) | – | –
2 | 28 (ACAGGCGCTGGCCGGAACCGTGCATATGGTC; DNA, backbone and methylation of C not given here) [compound 28] | – | – | > 1000 nM | –
3 | 12 (CCTGGACGGAACCAGAATACTTTTGGTCTCCAGG; chemistry not fully specified) [compound 12] | – | + (not less than that) | – | –
4 | 13 (TGGACGGAACCAGAATACTTTTGGTCTCCA; DNA, backbone and methylation of C not given here) [compound 13] | 110 ± 7 nM | + (not less than that) | – | –
5 | 29 (GCTGGCCGGAACCGTGCATATGGTCGCCAGC; DNA, backbone and methylation of C not given here) [compound 29] | – | – | 11 ± 4 nM | –
6 | GTGGTCTAGCTGTACTCNNNNNNNNNNNNNNNNNNNNNNNNNNNNNNNNNNNNNNNNCCACAGTCAACGAGCTA [SEQ ID NO: 1(40N), reference compound] | – | – | – | binding to autotaxin (in words) (autotaxin [3]): not bind
7 | 14 (GGGACGGAACCAGAATACTTTTGGTCTCCC; DNA, backbone and methylation of C not given here) [compound 14] | 42 ± 5 nM | + (not less than that) | – | –
8 | 26 (CGCTGGGGTACGCTCGGAACCGAGGCAATTGGTCAGCG; DNA, backbone and methylation of C not given here) [compound 26] | – | – | 440 ± 41 nM | –
9 | 16 (CTGGACGGAACCAGAATACTTTTGGTCTCCAG; DNA, backbone and methylation of C not given here) [compound 16] | 18 ± 1 nM | + (not less than that) | – | –
10 | 11 (GTACTCATGGACGGAACCAGAATACTTTTGGTCTCCATTGAGTAC; chemistry not fully specified) [compound 11] | – | + (not less than that) | – | –
11 | CCCCCCCCCCCCCC(=O)Nc1ccc(CP(=O)(O)O)cc1 [S32826] | – | – | – | LysoPLD inhibitory activity (in words) (autotaxin [4]): an inhibitory activity was not found; IC50 (autotaxin [4]; autotaxin 2.1 nM, 14:0 LPC 2 mM, 37° C. 6 hr, mean of 2-3 measurements±standard deviation, >1000 = no inhibitory activity up to 1000 nM): > 1000 nM
12 | 27 (TACGCTCGGAACCGAGGCAATTGGTCAGCGTG; DNA, backbone and methylation of C not given here) [compound 27] | – | – | 24 ± 10 nM | –
